Key:
[1] = tested on: rumen microbial proteinases; test: Protease activity of mixed rumen microbial cell enzyme source (casein substrate); format: biochemical, cows
Experimental: Two rumen-fistulated, nonlactating cows averaging 623±12.5 kg in weight were fed 5 kg dry matter (DM) of low quality timothy hay twice daily. About 2.5L of rumen fluid was collected through the fistula 4 hrs after the morning feeding at 07:00 hrs. Bulk feed particles were removed by sieving the fluid through a 0.5 mm strain. The fluid was then composited and then stored in a prewarmed (37° C.) thermal container.
A microbial powder was prepared using the acetone-butanol extraction procedure outlined by Mahadevan et al., “Preparation of protease from mixed rumen microorganisms and its use for the in vitro determination of true protein in feedstuffs,” Can. J. Anim. Sci. 67:55 (1987). About 500 g of this powder was prepared and stored at −20° C. Extraction of the proteases was accomplished by stirring 250 g of the powder with 1L of 4° C. cold water (for 1 hr) and then proceeding along Mahadevan's extraction procedure. Only extracts from the filtration with an XM-300 Amicon Filter, (approx. 300 000 molecular weight cutoff—under nitrogen gas), were made, washed twice with distilled water and the retentate freeze dried. This was referred to as the mixed microbial cell enzyme source. It was used in the protein adhesion tests and also in the parallel thiol and protease activity determinations.
Ten grams of the mixed microbial cell enzyme was dissolved in 100 ml warm (37° C.) 0.1 M phosphate buffer, pH 6.8, and used as an enzyme inoculant. The assay matrix consisted of 1 ml enzyme source, 1 ml 2% casein solution, 1 ml 01 M phosphate buffer and 1 ml of either the relevant level of surfactant or an equivalent amount of buffer. Ten levels of the two surfactants, polyoxyethylene sorbitan monoleate (Tween 80) and polyoxyethylene sorbitan monastearate (Tween 60) were tested, viz 0, 0.08, 0.16, 0.24, 0.32, 0.4, 0.8, 1.2, 1.6, and, 2.0% surfactant in the assay mixture.
The protease activity incubations were performed in 50 ml plastic centrifuge tubes, at 37° C. and under a stream of carbon dioxide gas. After 1.5 hr, 1 ml of the assay mixture was removed for the determination of thiols (SH) and disulfides (SS) (Sasago et al., “Determination of sulfhydryl and disulfide groups in milk by p-chloromercuribenzoate-diathizone method,” J. Dairy Sci. 46:1348-1351 (1963)). At the end of 2 hr incubation, the reaction was stopped with 1 ml of 15% TCA (trichloroacetic acid) solution, cooled to 4° C. under an icebath, and centrifuged at 10,000 for 10 min. The free amino acids in the supernatant were assayed using the ninhydrin method (Rosen, “a Modified Colorimetric Analysis For Amino Acids,” Arch. Biochim. Biophys. 67:10 (1957)). The optimal surfactant inclusion level was calculated by direct linear plots on the assumption that the Michaellis-Menten equation applied.

rumen cellulase activity = test: In vitro cellulose degradation by rumen bacterial inoculum; format: biochemical, cows; details: 0.25% surfactant in reaction mixture; regression on initial 24 hr
Experimental: A bacterial fraction, largely free of protozoa, was prepared for the fermentation assays by using the procedure of Forsberg, “Some Effects of Arsenic on the Rumen Microflora; An In Vitro Study,” Can. J. Microbiol. 24:36 (1978). The digesta inoculum was resuspended and washed twice in an equivalent amount of 0.1 M phosphate buffer pH 6.8 to the rumen fluid. The inoculum provided both, the substrate and the enzyme used for cellulose degradation assay. Incubation periods were 0, 1.5, 3, 6, 12, 24, and 48 hr. Other incubation conditions were similar to those outlined in experiment 1 above. However, cellulose was determined by the method of Updergraff, supra, for the in vivo digestibility trial. The optimal level of Tween 80 obtained was adopted here and followed.

dairy cows = test: Tween 80 in total mixed ration, dairy herd trial (Example 4); format: in vivo, Holsteins
Text: One hundred and twenty cows and heifers in a dairy herd of Holsteins were divided into three treatment groups of 40 animals per group. All animals were given ad libitum access to a total mixed ration (TMR) based on grass silage, corn silage, grass hay, barley and canola meal. The treatments imposed were: Treatment 1—TMR without additive (Control). Treatment 2—TMR formulated to contain 0.2% (wt/wt) Tween 80+0.1% enzyme preparation (wt/wt). Treatment 3—TMR formulated to contain 0.2% (wt/wt) Tween 80. The Tween 80 was coated onto silica to form a product containing 50% Tween 80 and 50% silica. The enzyme preparation was obtained from Lucta S. A. (Barcelona, Spain). The preparation had the following activities: β-glucanase 263.0, xylanase 75.1 and amylase 542.6. Activities were expressed as nmol of reducing sugars released per mg of enzyme in 1 min at 0.83 mg/ml enzyme concentration. The trial lasted 13 weeks. Animals received their respective dietary treatments for 12 weeks. Milk production and feed intake were monitored until the 13th week (1 week after animals had been removed from dietary treatments). Feed (TMR) offered to each group was weighed and recorded at each feeding. Each group was fed to provide a weighback of 5%. Samples of the feed offered and refused were taken daily, composited into weekly samples and dried at 55° C. for 72 hr to determine dry matter (DM) content. Daily (AM and PM) milk production by each cow was recorded. Animals were weighed two days in a row immediately after milking on a monthly basis. Milk samples were taken for compositional analyses (fat, protein, and somatic cells) in the week preceding the trial, and then during the trial at 4 week intervals. Samples were taken from both the AM and the PM milkings and analyzed individually.

Red Angus steers = test: Performance of feedlot cattle, 119 days (Example 6); format: in vivo
Experimental: Three hundred and twenty six Red Angus steers were stratified by weight and divided into eight pens. The pens were then randomly assigned to one of the following four dietary treatments:
3) 0.2% (wt/wt) glycanase enzyme (enzyme)
The enzyme is marketed by GNC Bioferm Inc., Saskatoon, SK. The product contained the following activities (expressed as nmol of reducing sugars released from 1 mg of product per min: xylanase (336.6), β-glucanase (196.0), carboxymethylcellulase (44.4), and amylase (46.3). The basal diet was a total mixed ration consisting of rolled barley, corn silage and canola meal. Tween 80 was diluted with tap water (1 in 5) before it was applied. The total amount of feed required each day for the animals on each treatment was weighed separately in a mixer wagon and the appropriate quantity of Tween 80, enzyme, or their combination applied to it and mixed for ten minutes before feeding. An equal volume of water as applied to the Tween 80 treatment was also applied to the control and enzyme treatment to make the moisture content of the four experimental diets equal. The experimental diets were fed for a total of 119 days. Individual body weights were taken at the beginning and end of the experiment. Group body weights were taken at monthly intervals.

[2] = direct linear plots, Michaelis-Menten assumed

polyoxyethylene sorbitan monoleate [Tween 80]
Initial rate of proteinase activation ([1]; control=0): 163.5% | Km (additive conc.), proteinase activation [1, 2]: 0.20 ± 0.03b % | Vmax (maximum proteinase activation) [1, 2]: 166.8 ± 8.9b %/unit additive conc. | Initial rate of cellulose degradation (rumen cellulase activity): 1.04c (0.32) μg/ml/hr | More milk per cow than control over the 12-week period (dairy cows; 0.2% Tween 80 (with or without 0.1% enzyme)): 64 kg | Average increase in milk production over control (dairy cows; all cows lactating at least 3 weeks before start, 0.2% Tween 80 (with or without 0.1% enzyme)): 0.76 kg/cow/day | Milk produced (kg) per kg of feed consumed (dairy cows; feed conversion efficiency): 1.48 kg per kg of feed | More milk than control (dairy cows; fresh cows, after the 4th week of lactation): approximately 4 kg more milk/cow/day | More milk than a cow on Tween 80 plus enzyme over 12 weeks (dairy cows; mature cow, 0.2% Tween 80): 74 kg | More milk than a cow on the control diet over 12 weeks (dairy cows; mature cow, 0.2% Tween 80): 110 kg | Average increase in milk production (dairy cows; mature cows, 0.2% Tween 80): 1.31 kg/day | Average Daily Gain (Red Angus steers; 0.1% Tween 80): 1.69a kg/d | Average daily gain higher than control (Red Angus steers; 0.1% Tween 80): 6.3% | Feed Efficiency (Gain/Feed) (Red Angus steers; 0.1% Tween 80): 0.166 | More weight gained than animals on the control diet (Red Angus steers; 0.1% Tween 80): approximately 5.8% | Total Weight Gain (Red Angus steers; 0.1% Tween 80 (dry matter basis)): 219.03a kg
